According to patent US12497358B2, “Inhibitor of EIF2α dephosphorylation” (THE ROYAL INSTITUTION FOR THE ADVANCEMENT OF …, priority 2021, dated 2025):

Columns and labels:
Dmd^mdx mice = experiment: In vivo administration by osmotic pump in Dmd^mdx mouse model of Duchenne muscular dystrophy
Description: FIG. 20 is a schematic diagram of in vivo administration of C15 by an osmotic pump in the Dmd^mdx mouse model of Duchenne muscular dystrophy, specifically Alzet™ 2001 osmotic pumps were used to deliver 2.5 mg/kg/day of C15 with a vehicle containing 50:50 DMSO:[…] at a flow rate of 0.5 μL/hr by a subcutaneous implantation of the Alzet™ 2001 osmotic pumps into Dmd^mdx mouse, and 14 days later muscle was harvested for quantification by fluorescence of the myofibre CSA (red) and PAX7(+) (green) satellite cell compartment.
In this example, the effect of C15 on the dephosphorylated levels of elF2α was studied. Animal care practices were performed in accordance with the federal Canadian Council on Animal Care, as practiced by McGill University. All mice were maintained on a C57/BI6 background. Dmd^mdx mice, aged 8-10 weeks, were implanted (sub-cutaneously) with osmotic pumps (Alzet™) to deliver C15 at a rate of 2.5 mg/kg/day. C15 was dissolved in a 50:50 solution of DMSO:PEG400. At indicated time points, muscle was harvested for analysis by immunofluorescence.
(§1) Immunoassays were also performed to further confirm the effect of C15 on the dephosphorylation of elF2α. For immunofluorescence, cultured satellite cells were fixed in 4% paraformaldehyde (PFA), permeabilized with 0.2% Triton™, 50 mM NH4Cl and blocked in 5% horse serum (HS). Single EDL myofibers were fixed with 4% PFA, permeabilized with 0.1% Triton™ in PBS and blocked in 5% horse serum (HS) with 0.1% Triton™ in PBS. TA muscles were fixed for 2 hr in 0.5% PFA at 4° C. and equilibrated overnight in 20% sucrose at 4° C. Tissues were mounted in Frozen Section Compound (VWR) and flash frozen in a liquid nitrogen-cooled isopentane bath. Transverse sections (10 μm) were permeabilized with 0.1% Triton™, 0.1M Glycine in PBS, and blocked in Mouse on Mouse (M.O.M.) reagent (Vector Labs).

[1] = test system: P-elF2α dependent read-through of Atf4 uORFs (Atf4-fluc reporter) in HEK293 cells; experiment: Atf4-luciferase reporter (Fluc/Rluc ratio) in transfected HEK293 cells; assay type: cell-based
Excerpt: The Atf4- and Tacc3-luciferase constructs were made by cloning gBlock gene fragments (Integrated DNA Technologies) corresponding to 5′UTRs of Mus musculus Atf4 and Tacc3, fused to the 5′end of the fluc gene up to the Narl restriction enzyme site. Mutant versions of Atf4 and Tacc3 5′UTRs were designed with each ATG start codon of uORFs deleted. These 5′UTR gene fragments were cloned into Hindlll, Narl sites upstream of the firefly luciferase (fluc) gene in pGL3-promoter plasmids, thereby maintaining the final overlapping uORF with the main ORF for fluc (Promega™). FIG. 5A and FIG. 5B show a schematic of the formation of a pre-initiation complex that includes many factors including the a subunit (elF2α) that is dephosphorylated (FIG. 5A) or phosphorylated (FIG. 5B). The pre-initiation complex associates with the uORFs, where, if phosphorylated, translation initiation of the uORFs occurs upstream of Atf4 and continues to translate Atf4. However, if elF2α is dephosphorylated (FIG. 5A), no translation initiation occurs for Atf4 as the pre-initiation complex dissociates from the uORFs.
HEK293 cells were plated in 24-well plates at a density of 25,000 cells/well and incubated overnight. […] The cells were then lysed and the Fluc/Rluc ratio was determined using the Promega™ Dual-Luciferase Reporter kit (Madison, USA). […]

[2] = test system: PAX7-expressing muscle stem cells (MuSCs); experiment: DDX6-positive RNA granules in PAX7-expressing MuSCs, ex vivo culture, immunofluorescence; assay type: cell-based, mice
Description: (§2) Moreover, cells and single EDL myofibres were cultured in 39% Dulbecco's modified eagle medium (DMEM), 39% F12, 20% fetal calf serum (FCS) (Life Technologies), 2% UltroserG™ (Pall Life Sciences). C2C12 myoblasts were cultured in DMEM supplemented with 20% FCS. When indicated, culture conditions were supplemented with 0.1% dimethylsulfoxide (DMSO control, Sigma), 10 μM sal003 (Sigma), or 0.1-0.2 μM C15.
P-elF2α is required for the assembly of DDX6-positive(+) RNA granules in quiescent and self-renewing satellite cells. Activated muscle stem cells (MuSCs) dephosphorylate elF2α, RNA granules disassemble, and the myogenic program is activated.
as §1, with “Transverse sections (10 μm) were permeabilized with 0.1% Triton™, 0.1M Glycine in PBS, and blocked in Mouse on Mouse (M.O.M.) reagent (Vector Labs).” left out

[3] = test system: elF2α phosphorylation in C2C12 cells; experiment: Immunoblot of P-elF2α and total elF2α in C2C12 cell lysates; assay type: cell-based
Description: as §2
For immunoblotting, cell lysates were obtained in RIPA buffer (ThermoFischer Scientific) supplemented with complete protease inhibitor cocktail (Roche) and phosphatase inhibitor cocktail (Sigma). The primary antibodies used were against PAX7 (DHSB), LAMININ (Sigma L9393), MYOG (Abcam 124800 and Santacruz sc-12732), and β-ACTIN (Sigma A5441). Alexa™ Fluor-488, Alexa™ Fluor-594 and Alexa™ Fluor-647 conjugated secondary anti-mouse IgG1, anti-mouse IgG2B or anti-rabbit antibodies (Life technologies) were used for immunofluorescence. Horseradish peroxidase (HRP) conjugated anti-mouse or anti-rabbit secondary antibodies (Jackson Immunoresearch) were used with the ECL™ Prime Western Blotting Detection reagents (GE Healthcare). Densitometry of immunoblots was performed with ImageJ™.
To determine the effect of C15 on elF2α phosphorylation, C2C12 cell lysates cultured for twelve hours in the presence of sal003 (10 μM) or C15 (0.1 μM and 0.2 μM) were immunoblotted.

[4] = test system: MuSCs isolated from skeletal muscle of Dmd^mdx mice; experiment: Ex vivo culture of MuSCs from Dmd^mdx mice: PAX7 expression, myocolony size, fusion index; assay type: cell-based
Description: as §2
PAX7 expression marks MuSCs that retained stem cell properties to regenerate muscle. Under normal culture conditions, PAX7-expression is down regulated as MuSCs differentiate and lose their stem cell properties to regenerate muscle. […] Conceptually, these ex vivo results support a model by which pharmacological interventions that promote MuSC expansion (FIG. 10A, FIG. 10B, and FIG. 11) in the short term will lead to improved muscle mass and strength in the long term.
as §1

satellite cells = experiment: Ex vivo expansion of cultured cells; assay type: cell-based; conditions: sal003 concentrations lower than 10 μM
Description: Moreover, cells and single EDL myofibres were cultured in 39% Dulbecco's modified eagle medium (DMEM), 39% F12, 20% fetal calf serum (FCS) (Life Technologies), 2% UltroserG™ (Pall Life Sciences). C2C12 myoblasts were cultured in DMEM supplemented with 20% FCS. […]

Row | SMILES | MuSC associated RNA granules (EDL myofibres) (Dmd^mdx mice; 2.5 mg/kg/day C15, osmotic pump s.c., two weeks (FIG. 21)) | myofiber cross sectional area of treated muscle (Dmd^mdx mice; 2.5 mg/kg/day C15, two weeks) | numbers of central nucleated myofibres (Dmd^mdx mice; 2.5 mg/kg/day C15, two weeks) | numbers of PAX7-expressing MuSCs on single EDL myofibres (Dmd^mdx mice; 2.5 mg/kg/day C15, two weeks (FIG. 23)) | numbers of PAX7-expressing MuSCs on transverse sections of tibialis anterior (TA) (Dmd^mdx mice; 2.5 mg/kg/day C15, two weeks (FIG. 24)) | numbers of PAX7-expressing MuSCs on transverse sections of diaphragm (Dmd^mdx mice; 2.5 mg/kg/day C15, two weeks (FIG. 25)) | P-elF2α activity to enable read-through of uORFs after incubation at 37° C. (stability) ([1]; C15 10 μM, incubated at 37° C. for 0-3 weeks, HEK293 cells (FIG. 19)) | luciferase activity (Atf4-fluc reporter) ([1]; HEK293 cells, overnight, 10 μM, compared with sal003, C10 and DMSO (FIG. 6)) | DDX6(+) RNA granules in PAX7-expressing MuSCs, culture of isolated MuSCs ([2]; 0.2 μM C15, 4-day culture (FIG. 9)) | DDX6(+) RNA granules in PAX7-expressing MuSCs, culture of single myofibres ([2]; 0.2 μM C15, after 6 h (FIG. 7, 8)) | P-elF2α levels (P-elF2α : total elF2α) ([3]; C2C12 cells, 12 hours, C15 0.1 to 0.2 μM vs sal003 10 μM (FIG. 15, 16)) | activity of increasing P-elF2α levels after incubation at 37° C. (stability) ([3]; C15 10 μM, incubated at 37° C. for 0-3 weeks, C2C12 cells (FIG. 17, 18)) | fusion index (number of nuclei per myotube) ([4]; 0.2 μM C15, 7 days (FIG. 14)) | PAX7 expression of Dmd^mdx MuSCs ([4]; 0.2 μM C15, cultured 3 days (FIG. 10, 11)) | myocolony size ([4]; 0.2 μM C15, long periods of time (7 days; FIG. 12, 13)) | ex vivo expansion of cells (satellite cells)
1 | CC(C)(C)c1ccc(NC(=S)NC(NC(=O)/C=C/c2ccccc2)C(Cl)(Cl)Cl)cc1 (stereo not shown) [C15] | maintenance of MuSC associated RNA granules | increased | decreased | increased numbers | increased numbers | increased numbers | maintained | significantly increases luciferase activity, higher than sal003 and C10 | maintained | maintained | increased the P-elF2α levels to a level equivalent to 10 μM sal003 | maintained the activity of increasing P-elF2α levels | larger fusion index | maintain PAX7 expression | larger myocolonies | 
2 | O=C(/C=C/c1ccccc1)NC(NC(=S)Nc1ccc(Cl)cc1)C(Cl)(Cl)Cl (stereo not shown) [sal003] |  |  |  |  |  |  |  |  |  |  |  |  |  |  |  | not possible to expand the cells ex vivo at sal003 concentrations lower than 10 μM
